What all share (format): physicochemical
The nature of data set [1]: Base deblocking and stability of 9-xanthenylmethyl and 9,10-dihydro-9-anthracenylmethyl derivatives. The following applies: room temperature. The procedure:
1. Deblocking of Xmoc-PCA in 1,5,9-Triazabicyclo[4,4,0]dec-5-ene Solution: To a solution of 7.90 mg (0.0216 mmol) of Xmoc-PCA in 0.6 mL of pyridine was added 0.15 g (1.078 mmol 50 eq.) of 1,5,9-triazabicyclo[4,4,0]dec-5-ene (TBD). The mixture was stirred at room temperature and monitored by TLC with an eluant consisting of Skelly B--EtOAc (3:1). Complete deblocking had occurred after 25 minutes.
2. Base Deblocking of 9-Xanthenylmethyl Phenylacetate: a. In Piperdine Solution: To a solution of 13.39 mg of 9-XM-phenylacetate in 1.6 mL of DMF was added 0.4 mL (100 eq.) of piperidine. The mixture was stirred at room temperature. […] In DBU Solution: To a solution of 6.36 mg of 9-XM-phenylacetate in 0.9 mL of DMF was added 0.3 mL of 1,8-diazabicyclo[5,4,0]-undec-7-ene (DBU) (100 eq.). The mixture was stirred at room temperature. […] In TBD Solution: To a solution of 7.91 mg of 9-XM-phenylacetate in 0.3 mL of pyridine was added 100 mg (30 eq.) of 1,5,9-triazabicyclo[4,4,0]dec-5-ene. The mixture was stirred at room temperature.
1. General Procedure for Studying the Stabilities of DHAmoc-PCA, Xmoc-PCA, and DC-Xmoc-PCA in Piperidine Solution To a solution of urethane (0.0294 mmol) in 1.2 mL of DMF was added 0.3 mL (2.94 mmol, 100 eq.) of piperidine. The mixture was stirred at room temperature and monitored by TLC with an eluant consisting of Skelly B--EtOAc (3:1). Evidence for initiation of the deblocking required 2 minutes for DC-Xmoc-PCA, 3.5 hours for Xmoc-PCA, and 7 hours for DHAmoc-PCA.
2. General Procedure for Studying the Deblocking of Xmoc-PCA and DHAmoc-PCA in DBU Solution: To a solution of urethane (0.0324 mmol) in 0.5 mL of DMF was added 0.5 mL (3.24 mmol, 100 eq.) of 1,8-diazabicyclo[5,4,0]undec-7-ene. The mixture was stirred at room temperature and monitored by TLC with the eluant consisting of Skelly B--EtOAc (3:1). The time needed to complete the deblocking was 3.5 hours for Xmoc-PCA, and 6 hours for DHAmoc-PCA.

Data set [2] is described as follows: Stability of xanthenylmethyl and dihydroanthracenylmethyl derivatives in trifluoroacetic acid. Conditions: TFA 40 eq., deuterated chloroform, room temperature, 3 days. The procedure: 3. Stability of Xanthenylmethyl p-Chlorocarbanilate in Trifluoroacetic Acid: To a solution of 35.61 mg of Xmoc-PCA in 0.2 mL of deuterated chloroform was added 0.3 mL (40 eq.) of trifluoroacetic acid. The mixture was transferred to an NMR tube and allowed to stand at room temperature. The reaction was monitored by NMR spectroscopy (Varian A-60A, 60 MHz) and TLC with an eluant consisting of Skelly B--ethyl acetate (4:1). No change was noted after 3 days.
4. Stability of 9-Xanthenylmethyl Phenylacetate in Trifluoroacetic Acid: To a solution of 21.4 mg of 9-XM phenylacetate in 0.2 mL of deuterated chloroform was added 0.2 mL (40 eq.) of trifluoroacetic acid. The mixture was transferred to an NMR tube and let stand at room temperature. The reaction was monitored by NMR (Varian A-60A, 60 MHz) spectroscopy and TLC analysis with an eluant consisting of Skelly B--ether (2:1). No change was noted after 3 days.
1. Stability of 9,10-Dihydro-9-anthracenylmethyl p-Chlorocarbanilate in Trifluoroacetic Acid: To a solution of 23.61 mg of DHAmoc-PCA in 0.2 mL of deuterated chloroform was added 0.2 mL (40 eq.) of trifluoroacetic acid. The mixture was transferred to an NMR tube and allowed to stand at room temperature. The reaction was monitored by NMR spectroscopy (Varian A-60A, 60 MHz) and TLC with an eluant consisting of Skelly B--EtOAc (3:1). No change was noted after 4 days.

Data set [3] is described as follows: Base deblocking of substituted urethanes (U-PCA) by various amines. The following applies: dichloromethane, room temperature. From the text:
1. General Procedure for Studying the Base Deblocking of the Urethanes Fmoc-PCA, BTS-Fmoc-PCA, DT-Fmoc-PCA, and TMS-Fmoc-PCA: A mixture of urethane (0.05 mmol) in a solution prepared from an equal volume of base (2.5 mmol, 50 eq.) and dichloromethane was stirred at room temperature. The course of the reaction was monitored by TLC with an eluant consisting of Skelly B--ether (3:1).

A short description of data set [4]: Stability of substituted Fmoc-PCA in acetic acid. Conditions: glacial acetic acid 10 eq., CH2Cl2, room temperature, 48 hours. The procedure: 2. […] The mixture was stirred at room temperature for 48 hours. […] The mixture was washed with half sat'd NaHCO3 (2×10 mL) and water (10 mL). […] 161°-163° C., the IR and ^1 H NMR spectra of which matched that of an authentic sample.
3. Stability of 9-Trimethylsilyl-9-[…] p-Chlorocarbanilate in Acetic Acid: To a solution of 0.37 g of TMS-Fmoc-PCA in 10 mL of CH2 Cl2 was added 0.5 mL (10 eq.) of glacial acetic acid. The mixture was stirred at room temperature. […] The mixture was washed with half sat'd NaHCO3 (2×10 mL) and H2 O (10 mL). […] 124°-126° C., the ^1 H NMR and IR spectra of which matched that of an authentic sample.

Data set [5] is described as follows: Protolysis of BTS-Fmoc-PCA in trifluoroacetic acid. Conditions: TFA 10.7 eq., CH2Cl2, room temperature, 12 hours. Here is the method:
4. Protolysis of 2,7-Bis(trimethylsilyl)-9-fluoroenylmethyl p-Chlorocarbanilate in Trifluoroacetic Acid: To a solution of 0.3 g of BTS-Fmoc-PCA in 8 mL of CH2 Cl2 was added dropwise a solution of 0.5 mL (10.7 eq.) of trifluoroacetic acid in 3.0 mL of methylene chloride over a period of 10 minutes. The mixture was stirred at room temperature for 12 hours, washed with water (2×10 mL), and neutralized with sat'd NaHCO3 (2×10 mL). […] Recrystallization from EtOAc--Skelly B (2:1) gave 0.16 g (75.3%) of the pure urethane as colorless needles, m.p. 184°-185° C., identified by mixture melting point, and IR and NMR spectral comparisons with an authentic sample.

The nature of data set [6]: Stability of difluorenyl derivatives in trifluoroacetic acid. The following applies: TFA 500 eq. The procedure:
C. Stability of FM-Fmoc-analine in Trifluoroacetic Acid: To a solution of 51.3 mg of FM-Fmoc-analine in 6 mL of CHCl3 was added 4 mL (500 eq.) of trifluoroacetic acid. The mixture was stirred at room temperature and monitored by TLC with an eluant consisting of Skelly B--ether (2:1). No change was noted after two days. The mixture was diluted with 10 mL of chloroform, and washed with H2 O (2×15 mL) and sat'd NaHCO3 (2×15 mL). […] 241°-243° C., the ^1 H NMR and IR spectra of which matched that of an authentic sample.
D. Stability of Bis(9-fluorenyl)methyl Carbanilate Towards Trifluoroacetic Acid: To a solution of 100 mg of α-F-Fmoc-analine in 12 mL of chloroform was added 8 mL (500 eq.) of trifluoroacetic acid. The mixture was stirred at room temperature and monitored by TLC with an eluant consisting of Skelly B--ether (2:1). No change was noted after 24 hours. The mixture was washed with water (2×10 mL), sat'd NaHCO3 (3×10 mL), and water (10 mL). […] 223°-226° C. (dec.), the ^1 H NMR and IR spectra of which matched that of an authentic sample.

Data set [7] can be described thus: Stability of FM-Fmoc-aniline towards catalytic hydrogenolysis. Conditions: 5% Pd/C, 45 psi hydrogen, 24 hours. The procedure:
E. Stability of FM-Fmoc-aniline Towards Catalytic Hydrogenolysis: To a mixture of 100 mg of FM-Fmoc-aniline and 63.9 mg of Fmoc-aniline in 30 mL of freshly distilled THF and 15 mL of 100% EtOH was added 30 mg of 5% palladium on charcoal. The mixture was shaken under hydrogen at a pressure of 45 psi in a Parr apparatus for 24 hours. […] Recrystallization of the latter from ethyl acetate gave 89.1 mg (89.1%) of the pure FM-Fmoc-anilineas white crystals, m.p. 243°-244° C. the ^1 H NMR and IR spectra of which matched that of an authentic sample.

Data set [8] can be described thus: HPLC monitoring of the deblocking of Nε-(9-xanthenylmethoxycarbonyl)-L-lysine by TBD. The following applies: TBD 20 eq., pyridine and DMF, room temperature. The procedure: B. HPLC Monitoring of the Deblocking of N^ε -(9-Xanthenylmethoxycarbonyl)-L-lysine by TBD: A mixture of […] of H-Lys(Xmoc)-OH and 150 mg (20 eq.) of 1,5,9-triazabicyclo[4,4,0]dec-5-ene (TBD) in 0.3 mL of pyridine and 0.3 mL of DMF was stirred at room temperature. A 20 μL portion of the mixture was neutralized with a solution of 0.3 mL of 5% HCl and 0.3 mL of methanol, filtered, and injected for HPLC analysis which was carried out on a Waters Radial Pak 10-μm C18 reverse phase column (0.8×10 cm) under the following conditions:
Mobile phase: 65% methanol and 35% TFA (0.1% in water)

A short description of data set [9]: Piperidine deblocking of bis(9-fluorenyl)methyl carbanilate. The following applies: piperidine 48.5 eq., anhydrous ether, room temperature. Here is the method:
B. Piperidine Deblocking of Bis(9-fluorenyl)methyl Carbanilate: To a suspension of 20 mg (0.042 mmol) of αF-Fmoc-analine in 0.2 mL of anhydrous ether was added 0.2 mL (2.02 mmol, 48.5 eq.) of piperidine. The mixture was stirred at room temperature and monitored by TLC with an eluant consisting of Skelly B--CH2 Cl2 (1:1). […] No attempt was made to isolate the individual component of the final reaction mixture.

[10] abbreviates: CHCl3, room temperature, two days.
Setting [11] is: chloroform, room temperature, 24 hours.

Data on five compounds can be found in patent US5101059A, “Amino acid protecting groups” (Research Corporation Technologies, Inc., priority 1989, dated 1992).

Consider `O=C(Cc1ccccc1)OCC1c2ccccc2Oc2ccccc21` [9-XM-phenylacetate, 9-Xanthenylmethyl Phenylacetate], for which the “Time for Complete Deblocking” value is no more than 90 min in data set [1] (DBU 100 eq., DMF) and no more than 27 min in [1] (TBD 30 eq., pyridine). Further, in data set [1] (piperidine 100 eq., DMF, 2 days), the “stability in piperidine solution (TLC)” value is “no change”. Besides, the “stability in trifluoroacetic acid (NMR, TLC)” value in data set [2] is reported as “No change”.
With `C[Si](C)(C)c1ccc2c(c1)C(COC(=O)Nc1ccc(Cl)cc1)c1cc([Si](C)(C)C)ccc1-2` [BTS-Fmoc-PCA, 2,7-Bis(trimethylsilyl)-9-fluorenylmethyl p-Chlorocarbanilate], the “Time for Complete Deblocking” value in data set [3] (ethanolamine 50 eq.) was 90 min; in [3] (morpholine 50 eq., significant aminodibenzofulvene type adduct formed) it was 190 min; in data set [3] (piperidine 50 eq., significant aminodibenzofulvene type adduct formed), less than 3 min; in [3] (t-butylamine 50 eq.) it was 270 min. Also, the “Time for Complete Scavenging of Dibenzofulvene Analogs” value in data set [3] (morpholine 50 eq.) worked out at 3.5 hr; in [3] (piperidine 50 eq.) it was 40 min. In [4], this compound gave a recovered urethane of 95.35%. In addition, the “stability in acetic acid (TLC)” value in data set [4] is “no change”. In addition, the “product of protolysis in trifluoroacetic acid” value in data set [5] is 9-fluorenylmethyl p-chlorocarbanilate.
Take `O=C(Nc1ccccc1)OCC1(CC2c3ccccc3-c3ccccc32)c2ccccc2-c2ccccc21` [FM-Fmoc-aniline, 9-(9'-Fluorenylmethyl)-9-fluorenylmethyl Carbanilate]: the values for the recovered urethane in data set [6] (setting [10]) and in data set [7] were 97.1% and 99.4%, respectively. The “stability in trifluoroacetic acid (TLC)” value in [6] (setting [10]) was “No change”.
As for `N[C@@H](CCCCNC(=O)OCC1c2ccccc2Oc2ccccc21)C(=O)O` [H-Lys(Xmoc)-OH, N^ε -(9-Xanthenylmethoxycarbonyl)-L-lysine], in [8], the “time after which no starting material was left (HPLC)” value is no more than 4.5 h.
Turning to `O=C(Nc1ccccc1)OC(C1c2ccccc2-c2ccccc21)C1c2ccccc2-c2ccccc21` [α-F-Fmoc-aniline, Bis(9-fluorenyl)methyl Carbanilate], the “time for total decomposition of the urethane” value in data set [9] is no more than 10 min. Also, in data set [6] (setting [11]), the recovered urethane was 98.3% and the “stability in trifluoroacetic acid (TLC)” value was “No change”.
